Results as given in PubChem BioAssay (NCI).
“And” between values parts separate entries of the source, which are not always exact repeats. Identical values can stand only once.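 How tested: cells in 96-well plates exposed to compound for 48 hours at five concentrations. At the GI50, growth is halved. TGI marks complete inhibition of growth.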

Tests used:
Experiment in all cases: growth of human tumour cells (NCI), 48 h
MDA-MB-231 breast = system: MDA-MB-231 breast
NCI-H460 lung = system: NCI-H460 lung
M14 melanoma = system: M14 melanoma
MALME-3M melanoma = system: MALME-3M melanoma
HL-60(TB) leukemia = system: HL-60(TB) leukemia
SF-268 CNS = system: SF-268 CNS
A549 NSCLC = system: A549 NSCLC
OVCAR-4 ovarian = system: OVCAR-4 ovarian
OVCAR-5 ovarian = system: OVCAR-5 ovarian
SK-MEL-2 melanoma = system: SK-MEL-2 melanoma

| Compound | GI50 (MDA-MB-231 breast) | TGI (MDA-MB-231 breast) | GI50 (NCI-H460 lung) | TGI (NCI-H460 lung) | GI50 (M14 melanoma) | TGI (M14 melanoma) | GI50 (MALME-3M melanoma) | TGI (MALME-3M melanoma) | GI50 (HL-60(TB) leukemia) | TGI (HL-60(TB) leukemia) | GI50 (SF-268 CNS) | TGI (SF-268 CNS) | GI50 (A549 NSCLC) | TGI (A549 NSCLC) | GI50 (OVCAR-4 ovarian) | TGI (OVCAR-4 ovarian) | GI50 (OVCAR-5 ovarian) | TGI (OVCAR-5 ovarian) | GI50 (SK-MEL-2 melanoma) | TGI (SK-MEL-2 melanoma) |
| --- | --- | --- | --- | --- | --- | --- | --- | --- | --- | --- | --- | --- | --- | --- | --- | --- | --- | --- | --- | --- |
| Cc1ccc(-c2nc(N)c(C#N)c3c2CCOc2c-3ccc3ccccc23)cc1 | 0.07 µM | 0.626 µM | 0.332 µM | > 46.4 µM | 0.377 µM | > 22.9 µM | 0.0779 µM | 7.89 µM | 0.0891 µM | 0.916 µM | 0.356 µM | 31.6 µM | 1.2 µM | 22.9 µM | 16.3 µM | > 79.5 µM | 4.74 µM | > 100 µM |  |  |
| O=C(Nc1ccc(OCc2nnc(-c3ccccc3)o2)c(F)c1)Nc1ccc(Cl)c(C(F)(F)F)c1 | 2.3 µM | 6.03 µM | 1.52 µM | 3.7 µM | 2.97 µM | 47 µM | 1.78 µM | 4.98 µM | 1.99 µM | 4.61 µM | 3.52 µM | 19.2 µM | 1.91 µM | 35.5 µM | 2.49 µM | 8.52 µM | 7.56 µM | > 100 µM | 2.64 µM | 7.12 µM |
| Cc1nn(-c2ccccc2)c2nc3c(nc12)C1=NCCN1C(c1ccc(Cl)cc1)N3 (configuration not stated) | 1.81 µM | 4.95 µM | 2.19 µM | 5.03 µM | 1.98 µM | 3.86 µM | 2.18 µM | 4.12 µM | 1.87 µM | 4.4 µM | 5.61 µM | 17.6 µM | 4.63 µM | 17.7 µM | 7.1 µM | 20.9 µM | 11.4 µM | 24.3 µM | 2.3 µM | 4.46 µM |
| CC1(C)N=C(N)N=C(N)N1c1cccc(CCCCOc2ccccc2)c1 | 0.881 µM | 48.6 µM | < 0.01 µM | 12.4 µM | 0.0958 µM | > 41.3 µM | 7.22 µM | 29.8 µM | 0.0239 µM | 9.6 µM | 0.0558 µM | 22.9 µM | 0.0562 µM | 98.8 µM | 0.441 µM | 38.6 µM | < 0.0335 µM | > 100 µM | 1.61 µM | 19.9 µM |
| OCC1OC(n2cnc3c2NC=NC[C@H]3O)CC1O (some centres not stated) |  | > 500 µM | > 588 µM | 480 µM and > 588 µM | > 588 µM | 500 µM and > 588 µM | > 588 µM | 471 µM and > 588 µM | 219 µM | 465 µM and > 588 µM | > 588 µM | 500 µM and > 588 µM | 412 µM and > 588 µM | 461 µM and > 588 µM | > 588 µM | 500 µM and > 588 µM | > 588 µM | > 588 µM | > 588 µM | 500 µM and > 588 µM |
| O=C1c2cc([N+](=O)[O-])cc3cc([N+](=O)[O-])cc(c23)C(=O)N1CCCNCCNCCCN1C(=O)c2cc([N+](=O)[O-])cc3cc([N+](=O)[O-])cc(c23)C1=O |  | 3.45 µM |  | 3.56 µM |  | 3.31 µM |  | 1.33 µM |  | 1.13 µM |  | 2.03 µM |  | 3.6 µM |  | 3.31 µM |  | 6.68 µM |  | 0.323 µM |
